Measured values from PubChem BioAssay AID210 (DTP/NCI, 2004).
Several values for one entry are separate records, joined by “and”; a condition that tells them apart may be missing. Identical values can stand only once. Toxic doses and inconclusive results are not listed.

Tested on: CD2F1 mice, ip Colon 26 adenocarcinoma, median survival T/C
Assay: NCI In Vivo Anticancer Drug Screen. Data for tumor model Colon 26 Adenocarcinoma (intraperitoneal) in CD2F1 (CDF1) mice
Settings: endpoint: median survival time, higher = longer survival
Procedure: The antitumor activity of compounds was measured in mice bearing transplantable tumors. Survival or tumor size were measured and the results are expressed as the measurement made in the treated group (T) divided by the measurement made in the vehicle treated control group (C). The tumor model used in this assay is Colon 26 Adenocarcinoma (intraperitoneal) in CD2F1 (CDF1) mice

`O=C1c2ccccc2C(=O)c2c(NCCNCCO)ccc(O)c21` was tested, and the T/C (dose: 1.88 mg/kg/injection, schedule: Q01DX009 (ip), vehicle: acid diluted with saline) was 162 % of control, the T/C (dose: 2.0 mg/kg/injection, schedule: Q01DX009 (ip), vehicle: acid diluted with saline) was 152 % of control and the T/C (dose: 3.75 mg/kg/injection, schedule: Q01DX009 (ip), vehicle: acid diluted with saline) was 177 % of control. For the same compound, the T/C (dose: 4.0 mg/kg/injection, schedule: Q01DX009 (ip), vehicle: acid diluted with saline) was 212 % of control, the T/C (dose: 7.5 mg/kg/injection, schedule: Q01DX009 (ip), vehicle: acid diluted with saline) was 196 % of control and the T/C (dose: 8.0 mg/kg/injection, schedule: Q01DX009 (ip), vehicle: acid diluted with saline) was 245 % of control. For the same compound, the T/C (dose: 15.0 mg/kg/injection, schedule: Q01DX009 (ip), vehicle: acid diluted with saline) was 182 % of control and the T/C (dose: 16.0 mg/kg/injection, schedule: Q01DX009 (ip), vehicle: acid diluted with saline) was 263 % of control.

In the case of `COc1cccc2c1C(=O)c1c(O)c3c(c(O)c1C2=O)CC(O)(C(=O)CO)CC3OC1CC(N)C(O)C(C)O1` (configuration not stated), the T/C (dose: 1.13 mg/kg/injection, schedule: Q04DX003 (ip), vehicle: water) is reported as 107 % of control, the T/C (dose: 2.25 mg/kg/injection, schedule: Q04DX003 (ip), vehicle: water) is reported as 99 % of control and 113 % of control and the T/C (dose: 4.5 mg/kg/injection, schedule: Q04DX003 (ip), vehicle: water) is reported as 113 % of control. For the same compound, the T/C (dose: 9.0 mg/kg/injection, schedule: Q04DX003 (ip), vehicle: water) was 116 % of control and 117 % of control, the T/C (dose: 18.0 mg/kg/injection, schedule: Q04DX003 (ip), vehicle: water) was 117 % of control and the T/C (dose: 36.0 mg/kg/injection, schedule: Q04DX003 (ip), vehicle: water) was 111 % of control. The T/C (dose: 55.0 mg/kg/injection, schedule: Q07DX002 (iv), vehicle: saline) was 107 % of control, the T/C (dose: 74.0 mg/kg/injection, schedule: Q07DX002 (iv), vehicle: saline) was 112 % of control and the T/C (dose: 190.0 mg/kg/injection, schedule: Q07DX002 (iv), vehicle: saline) was 124 % of control.

`Cc1cnc(/C=N\NC(N)=S)c2cccc(N)c12` was tested, and the T/C (dose: 25.0 mg/kg/injection, schedule: Q04DX003 (iv), vehicle: other) was 110 % of control, the T/C (dose: 42.0 mg/kg/injection, schedule: Q04DX003 (iv), vehicle: other) was 103 % of control and the T/C (dose: 68.0 mg/kg/injection, schedule: Q04DX003 (iv), vehicle: other) was 108 % of control.

In the case of `C[C@@]1(CO)[C@H](O)CC[C@@]2(C)[C@H]1CC[C@H]1C[C@@H]3C[C@@]12CC[C@@]3(O)COC(=O)CN`, the T/C (dose: 12.5 mg/kg/injection, schedule: Q01DX009 (ip), vehicle: saline + alcohol) is reported as 113 % of control, the T/C (dose: 25.0 mg/kg/injection, schedule: Q01DX009 (ip), vehicle: saline + alcohol) is reported as 95 % of control and the T/C (dose: 25.0 mg/kg/injection, schedule: Q04DX003 (iv), vehicle: saline) is reported as 115 % of control. The T/C (dose: 50.0 mg/kg/injection, schedule: Q01DX009 (ip), vehicle: saline + alcohol) was 106 % of control, the T/C (dose: 50.0 mg/kg/injection, schedule: Q04DX003 (iv), vehicle: saline) was 118 % of control and the T/C (dose: 75.0 mg/kg/injection, schedule: Q01DX009 (ip), vehicle: saline + alcohol) was 94 % of control. For the same compound, the T/C (dose: 100.0 mg/kg/injection, schedule: Q04DX003 (iv), vehicle: saline) was 100 % of control.

`Nc1n[nH]c(N)n1` was tested, and the T/C (dose: 40.0 mg/kg/injection, schedule: Q04DX003 (ip), vehicle: saline) was 105 % of control, the T/C (dose: 80.0 mg/kg/injection, schedule: Q04DX003 (ip), vehicle: saline) was 96 % of control and the T/C (dose: 100.0 mg/kg/injection, schedule: Q04DX003 (ip), vehicle: suspension in saline) was 95 % of control. The T/C (dose: 160.0 mg/kg/injection, schedule: Q04DX003 (ip), vehicle: saline) was 112 % of control, the T/C (dose: 200.0 mg/kg/injection, schedule: Q04DX003 (ip), vehicle: suspension in saline) was 104 % of control and the T/C (dose: 320.0 mg/kg/injection, schedule: Q04DX003 (ip), vehicle: saline) was 106 % of control. The T/C (dose: 400.0 mg/kg/injection, schedule: Q04DX003 (ip), vehicle: suspension in saline) was 105 % of control, the T/C (dose: 800.0 mg/kg/injection, schedule: Q04DX003 (ip), vehicle: suspension in saline) was 108 % of control and the T/C (dose: 1600.0 mg/kg/injection, schedule: Q04DX003 (ip), vehicle: suspension in saline) was 100 % of control.

For `S=c1nc[nH]c2nc[nH]c12`, the T/C (dose: 6.25 mg/kg/injection, schedule: Q04DX003 (ip), vehicle: Klucel (hydroxypropylcellulose) (HPC)) was 115 % of control, the T/C (dose: 12.5 mg/kg/injection, schedule: Q04DX003 (ip), vehicle: Klucel (hydroxypropylcellulose) (HPC)) was 110 % of control and the T/C (dose: 50.0 mg/kg/injection, schedule: Q04DX003 (ip), vehicle: Klucel (hydroxypropylcellulose) (HPC)) was 191 % of control and 252 % of control. For the same compound, the T/C (dose: 100.0 mg/kg/injection, schedule: Q04DX003 (ip), vehicle: Klucel (hydroxypropylcellulose) (HPC)) was 171 % of control and the T/C (dose: 200.0 mg/kg/injection, schedule: Q04DX003 (ip), vehicle: Klucel (hydroxypropylcellulose) (HPC)) was 86 % of control.

With `Cc1c(N)nc([C@H](CC(N)=O)NC[C@H](N)C(N)=O)nc1C(=O)N[C@H](C(=O)N[C@H](C)[C@@H](O)[C@H](C)C(=O)N[C@H](C(=O)NCCc1nc(-c2nc(C(=O)NCCC[S+](C)C)cs2)cs1)[C@@H](C)O)C(OC1OC(CO)C(O)C(O)C1OC1OC(CO)C(O)C(OC(N)=O)C1O)c1cnc[nH]1` (some centres not stated) the T/C (dose: 1.0 mg/kg/injection, schedule: Q01DX009 (ip), vehicle: saline) was 115 % of control, the T/C (dose: 2.0 mg/kg/injection, schedule: Q01DX009 (ip), vehicle: saline) was 111 % of control and the T/C (dose: 4.0 mg/kg/injection, schedule: Q01DX009 (ip), vehicle: saline) was 107 % of control. For the same compound, the T/C (dose: 8.0 mg/kg/injection, schedule: Q01DX009 (ip), vehicle: saline) was 111 % of control and the T/C (dose: 16.0 mg/kg/injection, schedule: Q01DX009 (ip), vehicle: saline) was 111 % of control.

`Nc1ncn(C2OC(CO)C(O)C2O)c(=O)n1` (configuration not stated) was tested, and the T/C (dose: 13.0 mg/kg/injection, schedule: Q04DX003 (iv), vehicle: saline) was 107 % of control and the T/C (dose: 21.0 mg/kg/injection, schedule: Q04DX003 (iv), vehicle: saline) was 92 % of control.

For `C[C@]12CC[C@@H]3c4ccc(O)cc4CC[C@H]3[C@@H]1CC[C@@H]2O`, the T/C (dose: 6.25 mg/kg/injection, schedule: Q04DX002 (ip), vehicle: Klucel (hydroxypropylcellulose) (HPC)) was 103 % of control, the T/C (dose: 12.5 mg/kg/injection, schedule: Q04DX002 (ip), vehicle: Klucel (hydroxypropylcellulose) (HPC)) was 95 % of control and the T/C (dose: 25.0 mg/kg/injection, schedule: Q04DX002 (ip), vehicle: Klucel (hydroxypropylcellulose) (HPC)) was 94 % of control. The T/C (dose: 50.0 mg/kg/injection, schedule: Q04DX002 (ip), vehicle: Klucel (hydroxypropylcellulose) (HPC)) was 103 % of control, the T/C (dose: 100.0 mg/kg/injection, schedule: Q04DX002 (ip), vehicle: Klucel (hydroxypropylcellulose) (HPC)) was 100 % of control and the T/C (dose: 200.0 mg/kg/injection, schedule: Q04DX002 (ip), vehicle: Klucel (hydroxypropylcellulose) (HPC)) was 98 % of control.

`O=C1C=CN(C2OC(CO)C(O)C2O)C(=O)C1` (configuration not stated) was tested, and the T/C (dose: 25.0 mg/kg/injection, schedule: Q01DX005 (ip), vehicle: saline) was 109 % of control, the T/C (dose: 25.0 mg/kg/injection, schedule: Q04DX003 (ip), vehicle: saline) was 112 % of control and the T/C (dose: 50.0 mg/kg/injection, schedule: Q01DX005 (ip), vehicle: saline) was 102 % of control. The T/C (dose: 50.0 mg/kg/injection, schedule: Q04DX003 (ip), vehicle: saline) was 109 % of control, the T/C (dose: 100.0 mg/kg/injection, schedule: Q01DX005 (ip), vehicle: saline) was 98 % of control and the T/C (dose: 100.0 mg/kg/injection, schedule: Q04DX003 (ip), vehicle: saline) was 106 % of control. For the same compound, the T/C (dose: 200.0 mg/kg/injection, schedule: Q01DX005 (ip), vehicle: saline) was 106 % of control, the T/C (dose: 200.0 mg/kg/injection, schedule: Q04DX003 (ip), vehicle: saline) was 102 % of control and the T/C (dose: 400.0 mg/kg/injection, schedule: Q01DX005 (ip), vehicle: saline) was 102 % of control. For the same compound, the T/C (dose: 400.0 mg/kg/injection, schedule: Q04DX003 (ip), vehicle: saline) was 109 % of control.

With `CN(C)CCNc1ccc(NCCN(C)C)c2c1C(=O)c1ccccc1C2=O` the T/C (dose: 5.0 mg/kg/injection, schedule: Q01DX009 (ip), vehicle: acid diluted with saline) was 115 % of control and 119 % of control, the T/C (dose: 10.0 mg/kg/injection, schedule: Q01DX009 (ip), vehicle: acid diluted with saline) was 108 % of control and 123 % of control and 202 % of control and the T/C (dose: 40.0 mg/kg/injection, schedule: Q01DX009 (ip), vehicle: acid diluted with saline) was 104 % of control and 105 % of control.

In the case of `CC(C)NC(=O)OCc1c(COC(=O)NC(C)C)c(-c2ccc(Cl)c(Cl)c2)n2c1CCC2`, the T/C (dose: 2.5 mg/kg/injection, schedule: Q01DX009 (ip), vehicle: distilled water + Tween-80) is reported as 173 % of control, the T/C (dose: 5.0 mg/kg/injection, schedule: Q01DX009 (ip), vehicle: distilled water + Tween-80) is reported as 162 % of control and the T/C (dose: 10.0 mg/kg/injection, schedule: Q01DX009 (ip), vehicle: distilled water + Tween-80) is reported as 232 % of control. For the same compound, the T/C (dose: 20.0 mg/kg/injection, schedule: Q01DX009 (ip), vehicle: distilled water + Tween-80) was 289 % of control and the T/C (dose: 40.0 mg/kg/injection, schedule: Q01DX009 (ip), vehicle: distilled water + Tween-80) was 163 % of control.
